Measurements as given in paper PMC10376254, “Phytochemical and Bioactivity Studies on Hedera helix L. (Ivy) Flower Pollen and Ivy Bee Pollen” (Antioxidants, 2023).
Entries after “also recorded” stand apart in the source; their conditions may differ. Marks after values point to notes of the source that are not given here.

How the values were obtained:
xanthine oxidase (XO) [1] = target: T1, xanthine oxidase (XO) (Bos taurus, UniProt P80457); assay: Xanthine oxidase inhibitory activity (spectrophotometric); type: biochemical; details: for XO inhibitory activity (in words): spectrophotometric assay, at the applied concentrations (0.01–1 mg/mL)
T1 construct: purchased Sigma-Aldrich (Steinheim, Germany)
T1 sequence (P80457 2-1332 limits assumed): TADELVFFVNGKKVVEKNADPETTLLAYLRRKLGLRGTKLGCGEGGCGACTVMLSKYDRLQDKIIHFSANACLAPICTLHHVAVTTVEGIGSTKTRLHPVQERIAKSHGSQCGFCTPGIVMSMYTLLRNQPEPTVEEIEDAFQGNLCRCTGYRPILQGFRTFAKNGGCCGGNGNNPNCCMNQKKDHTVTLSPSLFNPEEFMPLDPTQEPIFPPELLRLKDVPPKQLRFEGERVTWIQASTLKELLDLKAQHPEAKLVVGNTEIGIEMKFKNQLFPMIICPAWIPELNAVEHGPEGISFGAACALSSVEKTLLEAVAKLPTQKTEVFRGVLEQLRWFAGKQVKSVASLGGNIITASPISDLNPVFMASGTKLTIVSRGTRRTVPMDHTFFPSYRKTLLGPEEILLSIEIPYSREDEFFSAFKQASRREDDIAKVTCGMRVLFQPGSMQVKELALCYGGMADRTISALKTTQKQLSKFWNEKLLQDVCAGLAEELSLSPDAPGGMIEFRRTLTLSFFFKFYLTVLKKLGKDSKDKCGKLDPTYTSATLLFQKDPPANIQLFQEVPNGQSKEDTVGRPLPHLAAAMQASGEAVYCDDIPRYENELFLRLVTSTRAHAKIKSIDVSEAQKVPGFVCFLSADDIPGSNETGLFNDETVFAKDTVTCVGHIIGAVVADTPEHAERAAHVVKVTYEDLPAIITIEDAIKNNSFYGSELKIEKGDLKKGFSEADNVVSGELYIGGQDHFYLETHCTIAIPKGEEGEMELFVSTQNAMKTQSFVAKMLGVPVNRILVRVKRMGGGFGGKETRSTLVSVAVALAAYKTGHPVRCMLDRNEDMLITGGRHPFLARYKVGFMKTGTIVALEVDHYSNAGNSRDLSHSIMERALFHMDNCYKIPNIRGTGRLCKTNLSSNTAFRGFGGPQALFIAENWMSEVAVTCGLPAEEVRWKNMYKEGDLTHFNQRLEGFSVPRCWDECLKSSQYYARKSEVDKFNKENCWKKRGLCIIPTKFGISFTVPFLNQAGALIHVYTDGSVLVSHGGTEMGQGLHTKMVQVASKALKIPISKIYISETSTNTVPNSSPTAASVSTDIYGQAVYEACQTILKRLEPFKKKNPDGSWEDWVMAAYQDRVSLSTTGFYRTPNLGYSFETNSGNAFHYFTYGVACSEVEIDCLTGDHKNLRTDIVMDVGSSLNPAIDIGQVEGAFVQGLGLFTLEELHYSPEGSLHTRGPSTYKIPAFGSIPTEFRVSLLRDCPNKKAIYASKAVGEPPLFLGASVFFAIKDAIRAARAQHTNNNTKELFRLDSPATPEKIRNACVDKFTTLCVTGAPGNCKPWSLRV
Description: Half-maximal inhibitory concentration values (IC50) were calculated for superoxide radical scavenging and XO inhibitory activity. Inhibition values (%) were calculated based on absorbances (A) measured against blank solutions by using the following formula:Inhibition (%): (1 − (ASample − ASample Blank)/(AControl − AControl Blank)) × 100.
Sodium phosphate buffer (50 mM, pH 7.5, 75 µL) was placed in the wells of a 96-well microplate; this was followed by the DSTSs in different concentrations (25 µL); followed by freshly prepared XO solution (0.2 U/mL in phosphate buffer solution, 25 µL); followed by water (25 µL). Incubation of the reaction mixture at 37 °C for 15 min was followed by the addition of a substrate solution (0.15 mM xanthine, 50 µL) into the mixture and incubation at 37 °C for 30 min until the reaction was terminated by the addition of hydrochloric acid (0.5 M, 50 µL). Finally, the absorbance was measured at 290 nm against a blank, containing all reagents, except the enzyme solution.

ABTS assay = details: trolox equivalents, n = 3, average ± SD
Description: (§1) The antioxidant activities were expressed as mg of trolox equivalents (TE) per g of hydroalcoholic extract (TE/g hydroalcoholic extract).
ABTS assay [33] was slightly modified and then applied. Equal volumes (20 µL) of the DSTSs, trolox standard solutions (6.25–100 μg/mL) or methanol (as a blank) were placed in separate wells of a 96-well microplate plate, and ABTS reagent (280 µL) was added. The absorbance was measured at 734 nm, after incubating the well plate for 6 min at room temperature.

[2] = DPPH• assay (spectrophotometric antioxidant activity); details: trolox equivalents, n = 3, average ± SD
Description: The same range of concentration (1–2.5 mg/mL) of DSTSs was applied for DPPH, FRAP, CUPRAC and ABTS assays. […] The antioxidant activities were expressed as mg of trolox equivalents (TE) per g of hydroalcoholic extract (TE/g hydroalcoholic extract). […] Inhibition values (%) were calculated based on absorbances (A) measured against blank solutions by using the following formula:Inhibition (%): (1 − (ASample − ASample Blank)/(AControl − AControl Blank)) × 100.
Equal volumes (20 μL) of the DSTSs, trolox standard solutions (3.125–100 μg/mL) and methanol (as a blank) were placed in separate wells of a 96-well microplate, which was followed by the addition of DPPH solution (0.1 mM, 280 μL) to each well. After incubation in the dark at room temperature for 30 min, the absorbance was measured at 530 nm [30].

[3] = CUPRAC assay (cupric reducing antioxidant capacity); details: trolox equivalents, n = 3, average ± SD
Description: as §1
The CUPRAC method [32] was applied. Copper (II) sulfate pentahydrate (10 mM, 85 µL), neocuproine (7.5 mM, 85 µL) ammonium acetate buffer solution (85 µL, pH 7) and water (51 µL) were inserted in each well of a 96-well microplate. Then, either 43 µL of the DSTSs or trolox standard solutions (3.125–200 μg/mL) or water as a blank were added into each well. After incubation at room temperature for 30 min, the absorbance was measured at 450 nm.

xanthine oxidase (XO) [4] = assay: HPTLC-xanthine oxidase inhibitory activity (bioautography); type: biochemical; details: for HPTLC-XO zone detection (XO inhibitors as white/yellow zones on purple background): 8 µg on plate for compounds, samples 50 mg/mL, 2 and 5 µL, documented 0–120 min
Description: HPTLC analyses was immersed into a derivatization chamber with a mixture of phosphate buffer solution (pH 7.6) containing EDTA (1 mM), NBT (1 mM) and XO (0.1 U/mL), and incubated at 37 °C for 30 min in the dark. After drying in the air, the HPTLC plate was dipped into a phosphate buffer solution containing xanthine (1.5 mM) and incubated at 37 °C for 30 min in the dark. After drying in the air, the HPTLC plate was documented at white light in RT mode immediately (0 min), as well as at 5, 10, 15, 20, 30, 45, 60, 90, and 120 min, subsequently.
In HPTLC-XO inhibitory activity assay, the developed plate was dipped into a phosphate buffer solution containing xanthine and after incubation and drying was documented immediately (t = 0 min) and after 5, 10, 15, 20, 30, 45, 60, 90 and 120 min. Within this documentation interval, the plate was stored in the dark. The XO inhibitors were detected as white/yellow zones on a purple background (Figure 7).

[5] = Superoxide radical scavenging (SOD) activity (xanthine/XO/NBT); type: biochemical; details: for SOD Activity IC50: enzymatic xanthine/XO/NBT, 560 nm, n = 3, ± SD, N.d. = Not detected
Description: Half-maximal inhibitory concentration values (IC50) were calculated for superoxide radical scavenging and XO inhibitory activity. Inhibition values (%) were calculated based on absorbances (A) measured against blank solutions by using the following formula:Inhibition (%): (1 − (ASample − ASample Blank)/(AControl − AControl Blank)) × 100. (1)
SOD activity was performed as described in Ref. [27]. […] After incubation at 37 °C for 20 min the reaction was terminated by hydrochloric acid (0.6 M, 80 µL) and absorption was measured at 560 nm against a blank solution containing all reagents except XO.

[6] = HPTLC-DPPH• effect-directed analysis; details: 0.4 µg on plate for compounds; STS 20 mg/mL, 2 and 5 µL
Description: HPTLC analyses were dipped into DPPH solution (0.1%) for 3 s using a Chromatogram Immersion Device III (Camag). The plates were left to dry in the air in the dark and were documented under white light after 30 min. The compounds having antioxidant activity appeared as yellow bands on the purple background.
The image of the HPTLC plate captured at white light illumination after HPTLC-DPPH analyses was for image analyses converted to a different format using WinCATS software (Camag) and then converted to videodensitograms in fluorescence mode using VideoScan TLC/HPTLC Evaluation Software (Version 1.02.00) (Camag).

[7] = FRAP assay (ferric reducing antioxidant power); details: trolox equivalents, n = 3, average ± SD
Description: The same range of concentration (1–2.5 mg/mL) of DSTSs was applied for DPPH, FRAP, CUPRAC and ABTS assays. […] The antioxidant activities were expressed as mg of trolox equivalents (TE) per g of hydroalcoholic extract (TE/g hydroalcoholic extract).
FRAP solution was freshly prepared by mixing 1 volume of iron (III) chloride solution (2 × 10^−2 M), 1 volume of TPTZ solution (1 × 10^−2 M) and 10 volumes of sodium acetate buffer (pH 3.6) solution. FRAP solution (280 µL) and the DSTSs (20 µL) or trolox standard solutions (20 µL; 3.125–100 μg/mL) or water as a blank (20 µL) were added in separate wells of a 96-well microplate, and after 6 min the absorbance was measured at 593 nm [31].

[8] = spectrophotometric, 290 nm, n = 3, ± SD, N.d. = Not detected

Structure (SMILES) | XO Inhibitory Activity IC50 (xanthine oxidase (XO) [1]; [8]) | IC50 (xanthine oxidase (XO) [1]; [8]) | XO inhibitory activity (in words) (xanthine oxidase (XO) [1]) | ABTS antioxidant activity (ABTS assay) | DPPH antioxidant activity [2] | CUPRAC antioxidant activity [3] | HPTLC-XO zone detection (XO inhibitors as white/yellow zones on purple background) (xanthine oxidase (XO) [4]) | SOD Activity IC50 [5] | HPTLC-DPPH intensity of yellow zone [6] | FRAP antioxidant activity [7] | SOD Activity IC50 ([5]; listed as allopurinol) | time at which the XO inhibition zone appeared on the HPTLC plate (xanthine oxidase (XO) [4]; 8 µg on plate) | SOD activity (in words) ([5]; spectrophotometric assay)
O=C(/C=C/c1ccc(O)c(O)c1)O[C@@H]1CC(O)(C(=O)O)C[C@@H](OC(=O)/C=C/c2ccc(O)c(O)c2)C1O (some centres unmarked) [3,5-Dicaffeoylquinic acid, 3,5-dicaffeoylquinic acid, reference compound] | 17.47 ± 2.23 ^c µg/mL |  |  | 701.64 ± 13.63 ^b mg TE/g | 665.53 ± 1.96 ^b mg TE/g | 760.83 ± 12.84 ^b mg TE/g | appeared immediately as yellow zones and lasted for 120 min | 5.87 ± 0.32 ^a µg/mL | slightly lower intensity | 542.36 ± 15.41 ^b mg TE/g |  |  | 
C[C@@H]1OC(Oc2c(-c3ccc(O)cc3)oc3cc(O)cc(O)c3c2=O)[C@H](O)[C@H](O)[C@H]1O (some centres unmarked) [Afzelin, kaempferol-3-O-rhamnopyranoside] |  |  |  | 104.71 ± 0.25 ^e mg TE/g | 149.35 ± 4.28 ^d mg TE/g | 171.40 ± 8.24 ^e mg TE/g | appeared immediately as yellow zones and lasted for 120 min | 20.61 ± 1.30 ^b µg/mL |  | 58.54 ± 2.37 ^d mg TE/g |  |  | 
Oc1ncnc2[nH]ncc12 [Allopurinol, allopurinol, reference compound] |  |  |  |  |  |  | immediately as a white zone, which lasted for 120 min | 3.03 ± 0.10 ^a µg/mL |  |  | 3.0 µg/mL |  | 

The next lines start with results.

XO Inhibitory Activity IC50 (xanthine oxidase (XO) [1]; [8]) | IC50 (xanthine oxidase (XO) [1]; [8]) | XO inhibitory activity (in words) (xanthine oxidase (XO) [1]) | Structure (SMILES) | ABTS antioxidant activity (ABTS assay) | DPPH antioxidant activity [2] | CUPRAC antioxidant activity [3] | HPTLC-XO zone detection (XO inhibitors as white/yellow zones on purple background) (xanthine oxidase (XO) [4]) | SOD Activity IC50 [5] | HPTLC-DPPH intensity of yellow zone [6] | FRAP antioxidant activity [7] | SOD Activity IC50 ([5]; listed as allopurinol) | time at which the XO inhibition zone appeared on the HPTLC plate (xanthine oxidase (XO) [4]; 8 µg on plate) | SOD activity (in words) ([5]; spectrophotometric assay)
 | 35.8 µM |  | O=C(/C=C/c1ccc(O)c(O)c1)O[C@@H]1C[C@](O)(C(=O)O)C[C@@H](O)[C@H]1O [Chlorogenic acid, chlorogenic acid, reference compound] |  |  |  | appeared immediately as yellow zones and lasted for 120 min |  |  |  |  |  | 
 |  | no XO inhibitory activity | C[C@@H]1O[C@@H](Oc2c(-c3ccc(O)cc3)oc3cc(O)cc(O)c3c2=O)[C@H](OC(=O)/C=C/c2ccc(O)cc2)[C@H](OC(=O)/C=C/c2ccc(O)cc2)[C@H]1O [Platanoside] | 173.15 ± 0.86 ^d mg TE/g | 143.11 ± 1.31 ^d mg TE/g | 213.68 ± 8.41 ^d mg TE/g | weakest XO inhibition activity; also recorded: weak yellow zone |  |  | 49.06 ± 0.91 ^de mg TE/g |  | 20 min | no SOD activity
 | 117 µM | low XO inhibitory activity | O=c1c(O[C@@H]2O[C@H](CO)[C@H](O)[C@H](O)[C@H]2O[C@@H]2O[C@H](CO)[C@@H](O)[C@H](O)[C@H]2O)c(-c2ccc(O)c(O)c2)oc2cc(O)cc(O)c12 [quercetin 3-O-β-glucopyranosyl-(1→2)-β-galactopyranoside] | 242.13 ± 5.88 ^c mg TE/g | 400.21 ± 11.78 ^c mg TE/g | 560.53 ± 14.74 ^c mg TE/g | appeared immediately as yellow zones and lasted for 120 min | 5.09 ± 0.36 ^a µg/mL |  | 227.30 ± 2.65 ^c mg TE/g |  |  | 
